# Laboratory results from US4112228A, “7-(D-α-Hydroxy-2-arylacetamido)-3-(2-carboxyalkyl-2,3-dihydro-s-tri azolo-[4,3-b]pyridazin-3-on-6-ylthiomethyl)-3-cephem-4-carboxylic acids and derivatives” (priority 1977, dated 1978).
# Where two headings read alike, the source gives them in different places.
# Tests used:
# [1] = tested on: S. paratyphi; assay: MIC by Steers' agar dilution method; conditions: Salmonella enterica
# [2] = tested on: P. inconstans; assay: MIC by Steers' agar dilution method; conditions: Providencia alcalifaciens
# [3] = Blood levels in mice after subcutaneous administration; type: in vivo; conditions: mouse, read-out: Blood level; for concentration at 0.25 h: 15'; for concentration at 0.5 h: 30'; for concentration at 1 h: 60'; for concentration at 2 h: 120'
# Procedure: Groups of mice were administered subcutaneously graded doses of 40, 20 and 10 mg./kg..
# [4] = tested on: Enterob. cloacae; assay: MIC by Steers' agar dilution method
# [5] = tested on: Ps. aeruginosa; assay: MIC by Steers' agar dilution method; conditions: Pseudomonas aeruginosa
# [6] = tested on: S. pyogenes; assay: MIC by Steers' agar dilution method
# [7] = tested on: Klebsiella sp.; assay: MIC by Steers' agar dilution method
# [8] = tested on: S. aureus; assay: MIC by Steers' agar dilution method; type: cell-based; conditions: Staphylococcus aureus
smiles,measurement,setting,value
"O=C(O)Cn1nc2ccc(SCC3=C(C(=O)O)N4C(=O)C(NC(=O)[C@H](O)c5ccccc5)[C@H]4SC3)nn2c1=O (stereo partly drawn) [BB-S488, 7-(D-Mandelamido)-3-(2-carboxymethyl-2,3-dihydro-s-triazolo[4,3-b]pyridazin-3-on-6-ylthiomethyl)-3-cephem-4-carboxylic Acid]",MIC,[1],0.1 µg/mL
same,MIC,[2],0.1 µg/mL
same,concentration at 0.25 h,[3]; sc 10 mg./kg.,5000 ng/mL
same,concentration at 0.5 h,[3]; sc 10 mg./kg.,3000 ng/mL
same,concentration at 1 h,[3]; sc 10 mg./kg.,800 ng/mL
same,concentration at 0.25 h,[3]; sc 20 mg./kg.,7400 ng/mL
same,concentration at 0.5 h,[3]; sc 20 mg./kg.,6000 ng/mL
same,concentration at 1 h,[3]; sc 20 mg./kg.,4300 ng/mL
same,concentration at 2 h,[3]; sc 20 mg./kg.,700 ng/mL
same,concentration at 0.25 h,[3]; sc 40 mg./kg.,19000 ng/mL
same,concentration at 0.5 h,[3]; sc 40 mg./kg.,17000 ng/mL
same,concentration at 1 h,[3]; sc 40 mg./kg.,12000 ng/mL
same,concentration at 2 h,[3]; sc 40 mg./kg.,1600 ng/mL
same,MIC,"[4]; A9656, MHA, Table 1",3.1 µg/mL
same,MIC,"[4]; El-1 A9656, HIA, Table 4",6.3 µg/mL
same,MIC,"[4]; El-1 A9656, MHA, Table 3",3.1 µg/mL
same,MIC,"[4]; El-1 A9656, MHA, Table 4",3.1 µg/mL
same,MIC,"[4]; El-1 A9656, NA, Table 4",12.5 µg/mL
same,MIC,"[4]; El-2 A20364 (β-lactamase), HIA, Table 4",6.3 µg/mL
same,MIC,"[4]; El-2 A20364 (β-lactamase), MHA, Table 4",3.1 µg/mL
same,MIC,"[4]; El-2 A20364 (β-lactamase), NA, Table 4",12.5 µg/mL
same,MIC,"[4]; El-2 A20364, MHA, Table 3",3.1 µg/mL
same,MIC,"[4]; El-4 A20650, MHA, Table 3",1.6 µg/mL
same,MIC,"[4]; El-6 A9657, MHA, Table 3",0.8 µg/mL
same,MIC,"[4]; El-7 A9659, MHA, Table 3",1.6 µg/mL
same,MIC,"[4]; El-8 A9655, MHA, Table 3",1.6 µg/mL
same,MIC,"[4]; El-9 A20021, MHA, Table 3",> 100 µg/mL
same,MIC,"[4]; El-11 A20344 (β-lactamase), HIA, Table 4",> 100 µg/mL
same,MIC,"[4]; El-11 A20344 (β-lactamase), MHA, Table 4",> 100 µg/mL
same,MIC,"[4]; El-11 A20344 (β-lactamase), NA, Table 4",> 100 µg/mL
same,MIC,"[4]; El-11 A20344, MHA, Table 3",> 100 µg/mL
same,MIC,"[4]; El-12 A21006, MHA, Table 3",1.6 µg/mL
same,MIC,"[4]; El-14 A20953, MHA, Table 3",0.8 µg/mL
same,MIC,"[4]; MHA, Example 10",3.1 µg/mL
same,MIC,"[5]; A9843, MHA, Table 1",> 100 µg/mL
same,MIC,"[5]; A9930, MHA, Table 1",> 100 µg/mL
same,MIC,"[5]; Pa-3 A9930, HIA, Table 4",> 100 µg/mL
same,MIC,"[5]; Pa-3 A9930, MHA, Table 4",> 100 µg/mL
same,MIC,"[5]; Pa-3 A9930, NA, Table 4",100 µg/mL
same,MIC,"[5]; strain not given (1st of 2), MHA, Example 10",> 100 µg/mL
same,MIC,"[5]; strain not named (2nd of 2), MHA, Example 10",> 100 µg/mL
same,MIC,[6],0.2 µg/mL
same,MIC,"[6]; Sp-2 Dick, MHA, Table 2",0.4 µg/mL
same,MIC,"[6]; Sp-3 A9604, MHA, Table 2",0.4 µg/mL
same,MIC,"[6]; Sp-5 A15040, MHA, Table 2",0.4 µg/mL
same,MIC,"[6]; Sp-6 A20066, MHA, Table 2",0.4 µg/mL
same,MIC,"[6]; Sp-7 Dig 7, MHA, Table 2",0.4 µg/mL
same,MIC,"[6]; Sp-8 A15041, MHA, Table 2",0.4 µg/mL
same,MIC,"[6]; Sp-9 A20201, MHA, Table 2",0.4 µg/mL
same,MIC,"[6]; Sp-10 A20202, MHA, Table 2",0.4 µg/mL
same,MIC,[6]; Streptococcus pyogenes,0.4 µg/mL
same,MIC,"[7]; Kx-2 A9662, MHA, Table 3",0.4 µg/mL
same,MIC,"[7]; Kx-3 A20346 (β-lactamase), HIA, Table 4",0.2 µg/mL
same,MIC,"[7]; Kx-3 A20346 (β-lactamase), MHA, Table 4",0.2 µg/mL
same,MIC,"[7]; Kx-3 A20346 (β-lactamase), NA, Table 4",0.2 µg/mL
same,MIC,"[7]; Kx-3 A20346, MHA, Table 3",0.2 µg/mL
same,MIC,"[8]; A9497, MHA, Table 1",0.1 µg/mL
same,MIC,"[8]; BX-1633, MHA, Example 10",3.1 µg/mL
same,MIC,"[8]; BX-1633 A9606, MHA, Table 1",0.4 µg/mL
same,MIC,"[8]; Sa-2 Smith A9537, HIA, Table 4",0.8 µg/mL
same,MIC,"[8]; Sa-2 Smith A9537, MHA, Table 2",0.4 µg/mL
same,MIC,"[8]; Sa-2 Smith A9537, MHA, Table 4",0.8 µg/mL
same,MIC,"[8]; Sa-2 Smith A9537, NA, Table 4",0.8 µg/mL
same,MIC,"[8]; Sa-3 No. 193, MHA, Table 2",0.8 µg/mL
same,MIC,"[8]; Sa-8, MHA, Table 2",0.4 µg/mL
same,MIC,"[8]; Sa-9 No. 193, MHA, Table 2",0.8 µg/mL
same,MIC,"[8]; Sa-10 A20239, MHA, Table 2",1.6 µg/mL
same,MIC,"[8]; Sa-11 BX-1633 A9606 (β-lactamase), HIA, Table 4",1.6 µg/mL
same,MIC,"[8]; Sa-11 BX-1633 A9606 (β-lactamase), MHA, Table 4",0.8 µg/mL
